Test results from patent US20260117071A1, “ICG LIPID DERIVATIVE, AND LIPID MICROPARTICLES EACH CONTAINING SAME” (Eisai R&D Management Co., Ltd., priority 2022, published 2026).

Experiment: Calculation of the molar extinction coefficient (absorption spectrum in ethanol)
Format: physicochemical
Settings: absorbance at 790 nm, 5 μM in ethanol, optical path length 1 cm
Experimental: An ICG lipid solution, prepared by the dissolution of the particular ICG lipid derivative or ICG in ethanol to provide 5 μM in each case, was introduced into a cuvette with an optical path length of 1 cm, and the absorption spectrum at 230 to 1000 nm was measured using an Infinite M200 (Tecan). The absorption spectra in FIG. 5 were provided by subtracting the absorption spectra of ethanol from the absorbance at each wavelength.
The molar concentration used in the calculation of the molar extinction coefficient was itself calculated using a purity of 100% for the ICG lipid derivative and using the nonsalt form.

molar extinction coefficient ε [L/mol/cm] | Structure (SMILES)
165860 | CCCCCCCC/C=C\CCCCCCCC(=O)OCC(COP(=O)(O)OCCNC(=O)CCN1/C(=C/C=C/C=C/C=C/C2=[N+](CCCCS(=O)(=O)[O-])c3ccc4ccccc4c3C2(C)C)C(C)(C)c2c1ccc1ccccc21)OC(=O)CCCCCCC/C=C\CCCCCCCC (centres unmarked) [ICG-DOPE, 4-(2-((1E,3E,5E,7E)-7-(3-(3-((2-(((2,3-bis(oleoyloxy)propoxy)oxidophosphoryl)oxy)ethyl)amino)-3-oxopropyl)-1,1-dimethyl-1,3-dihyro-2H-benzo[e]indol-2-ylidene)hepta-1,3,5-trien-1-yl)-1,1-dimethyl-1H-benzo[e]indol-3-ium-3-yl)butane-1-sulfonate, reference compound]
177760 | CCCCCCCCCCCCCCCCCCNC(=O)CCN1/C(=C/C=C/C=C/C=C/C2=[N+](CCC(=O)NCCCCCCCCCCCCCCCCCC)c3ccc4ccccc4c3C2(C)C)C(C)(C)c2c1ccc1ccccc21 [ICG-diSA, 2-((1E,3E,5E,7E)-7-(1,1-dimethyl-3-(3-(octadecylamino)-3-oxopropyl)-1,3-dihydro-2H-benzo[e]indol-2-ylidene)hepta-1,3,5-trien-1-yl)-1,1-dimethyl-3-(3-(octadecylamino)-3-oxopropyl)-1H-benzo[e]indol-3-ium]

More lines, now with the values behind:

Structure (SMILES) | molar extinction coefficient ε [L/mol/cm]
CCCCCCCCCCCCCCCCCC(=O)OCC(COP(=O)([O-])OCCNC(=O)CC[N+]1=C(/C=C/C=C/C=C/C=C2/N(CCC(=O)NCCOP(=O)(O)OCC(COC(=O)CCCCCCCCCCCCCCCCC)OC(=O)CCCCCCCCCCCCCCCCC)c3ccc4ccccc4c3C2(C)C)C(C)(C)c2c1ccc1ccccc21)OC(=O)CCCCCCCCCCCCCCCCC (centres unmarked) [ICG-diDSPE, 2-(3-(2-((1E,3E,5E,7E)-7-(3-(3-((2-(((2,3-bis(stearoyloxy)propoxy)(hydroxy)phosphoryl)oxy)ethyl)amino)-3-oxopropyl)-1,1-dimethyl-1,3-dihydro-2H-benzo[e]indol-2-ylidene)hepta-1,3,5-trien-1-yl)-1,1-dimethyl-1H-benzo[e]indol-3-ium-3-yl)propanamide)ethyl (2,3-bis(stearoyloxy)propyl) phosphate] | 199840
CCCCCCCC/C=C\CCCCCCCC(=O)OCC(COP(=O)([O-])OCCNC(=O)CC[N+]1=C(/C=C/C=C/C=C/C=C2/N(CCC(=O)NCCOP(=O)(O)OCC(COC(=O)CCCCCCC/C=C\CCCCCCCC)OC(=O)CCCCCCC/C=C\CCCCCCCC)c3ccc4ccccc4c3C2(C)C)C(C)(C)c2c1ccc1ccccc21)OC(=O)CCCCCCC/C=C\CCCCCCCC (centres unmarked) [ICG-diDOPE, 2-(3-(2-((1E,3E,5E,7E)-7-(3-(3-((2-(((2,3-bis(oleoyloxy)propoxy)(hydroxy)phosphoryl)oxy)ethyl)amino)-3-oxopropyl)-1,1-dimethyl-1,3-dihydro-2H-benzo[e]indol-2-ylidene)hepta-1,3,5-trien-1-yl)-1,1-dimethyl-1H-benzo[e]indol-3-ium-3-yl)propanamide)ethyl(2,3-bis(oleoyloxy)propyl) phosphate] | 161100
CC1(C)C(/C=C/C=C/C=C/C=C2/N(CCCCS(=O)(=O)[O-])c3ccc4ccccc4c3C2(C)C)=[N+](CCCCS(=O)(=O)[O-])c2ccc3ccccc3c21.[Na+] [ICG, Indocyanine green, reference compound] | 208980
